20 compounds from ChEMBL document CHEMBL3991601, “The target landscape of clinical kinase drugs” (Science, 2017) can be followed below.

The target of assay [1] is Epithelial discoidin domain-containing receptor 1 (Homo sapiens, UniProt Q08345).
Another assay concerns the target T1, Ephrin type-B receptor 4 (Homo sapiens, UniProt P54760).
T1 sequence (P54760 whole entry): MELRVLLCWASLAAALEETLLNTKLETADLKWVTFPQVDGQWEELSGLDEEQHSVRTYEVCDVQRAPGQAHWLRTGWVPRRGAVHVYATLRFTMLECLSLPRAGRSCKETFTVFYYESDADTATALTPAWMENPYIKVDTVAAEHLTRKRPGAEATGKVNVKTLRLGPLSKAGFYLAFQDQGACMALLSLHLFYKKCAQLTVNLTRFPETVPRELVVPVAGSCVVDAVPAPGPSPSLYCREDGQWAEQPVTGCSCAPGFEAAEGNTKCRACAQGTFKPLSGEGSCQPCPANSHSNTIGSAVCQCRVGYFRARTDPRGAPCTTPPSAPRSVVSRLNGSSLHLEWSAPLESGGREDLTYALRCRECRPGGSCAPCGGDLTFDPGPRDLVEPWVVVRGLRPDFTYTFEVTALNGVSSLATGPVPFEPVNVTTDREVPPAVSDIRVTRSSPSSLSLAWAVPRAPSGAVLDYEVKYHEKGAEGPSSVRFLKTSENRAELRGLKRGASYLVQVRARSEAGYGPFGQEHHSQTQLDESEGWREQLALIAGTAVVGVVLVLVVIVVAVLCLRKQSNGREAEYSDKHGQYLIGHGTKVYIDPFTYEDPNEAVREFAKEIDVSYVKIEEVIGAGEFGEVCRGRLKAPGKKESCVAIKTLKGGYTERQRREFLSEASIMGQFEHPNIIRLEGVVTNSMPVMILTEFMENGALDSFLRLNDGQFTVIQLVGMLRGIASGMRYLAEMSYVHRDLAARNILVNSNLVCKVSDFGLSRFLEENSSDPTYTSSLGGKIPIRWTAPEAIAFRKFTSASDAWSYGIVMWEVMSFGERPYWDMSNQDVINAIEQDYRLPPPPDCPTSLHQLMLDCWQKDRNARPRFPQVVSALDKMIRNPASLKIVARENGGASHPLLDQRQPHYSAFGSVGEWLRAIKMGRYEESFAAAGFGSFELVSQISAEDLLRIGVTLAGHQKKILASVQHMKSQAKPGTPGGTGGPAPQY

For another assay, the target named is T2, Ephrin type-B receptor 6 (Homo sapiens, UniProt O15197).
T2 sequence (O15197 whole entry): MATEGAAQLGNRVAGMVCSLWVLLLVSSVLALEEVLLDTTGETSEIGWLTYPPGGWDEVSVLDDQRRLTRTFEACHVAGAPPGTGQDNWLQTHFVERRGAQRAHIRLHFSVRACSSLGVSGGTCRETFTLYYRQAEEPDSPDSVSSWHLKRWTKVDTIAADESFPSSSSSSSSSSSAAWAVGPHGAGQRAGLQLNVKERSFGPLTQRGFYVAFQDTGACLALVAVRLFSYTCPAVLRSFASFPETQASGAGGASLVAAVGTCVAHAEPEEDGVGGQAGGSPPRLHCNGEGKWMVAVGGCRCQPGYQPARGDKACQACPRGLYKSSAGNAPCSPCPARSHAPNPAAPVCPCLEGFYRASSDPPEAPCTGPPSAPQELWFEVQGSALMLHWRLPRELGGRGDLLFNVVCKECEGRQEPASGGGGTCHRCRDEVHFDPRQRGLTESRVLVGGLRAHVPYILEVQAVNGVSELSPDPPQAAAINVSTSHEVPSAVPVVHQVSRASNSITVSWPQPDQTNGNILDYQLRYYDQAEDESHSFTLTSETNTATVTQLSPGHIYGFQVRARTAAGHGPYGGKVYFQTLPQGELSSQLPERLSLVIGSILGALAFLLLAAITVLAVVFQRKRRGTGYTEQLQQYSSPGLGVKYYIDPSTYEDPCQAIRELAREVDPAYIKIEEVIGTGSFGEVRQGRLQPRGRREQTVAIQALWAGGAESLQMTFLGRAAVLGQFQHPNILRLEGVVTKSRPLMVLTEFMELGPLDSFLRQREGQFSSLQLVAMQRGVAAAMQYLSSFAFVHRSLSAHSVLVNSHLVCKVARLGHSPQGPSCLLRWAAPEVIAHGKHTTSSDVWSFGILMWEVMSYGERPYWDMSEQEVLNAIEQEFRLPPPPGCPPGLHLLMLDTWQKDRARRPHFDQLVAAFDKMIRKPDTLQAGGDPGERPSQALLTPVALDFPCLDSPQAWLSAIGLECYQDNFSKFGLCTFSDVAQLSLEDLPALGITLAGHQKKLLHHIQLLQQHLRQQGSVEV

Assay [2] addresses T3, Serine/threonine-protein kinase TAO3 (Homo sapiens, UniProt Q9H2K8).
T3 sequence (Q9H2K8 whole entry): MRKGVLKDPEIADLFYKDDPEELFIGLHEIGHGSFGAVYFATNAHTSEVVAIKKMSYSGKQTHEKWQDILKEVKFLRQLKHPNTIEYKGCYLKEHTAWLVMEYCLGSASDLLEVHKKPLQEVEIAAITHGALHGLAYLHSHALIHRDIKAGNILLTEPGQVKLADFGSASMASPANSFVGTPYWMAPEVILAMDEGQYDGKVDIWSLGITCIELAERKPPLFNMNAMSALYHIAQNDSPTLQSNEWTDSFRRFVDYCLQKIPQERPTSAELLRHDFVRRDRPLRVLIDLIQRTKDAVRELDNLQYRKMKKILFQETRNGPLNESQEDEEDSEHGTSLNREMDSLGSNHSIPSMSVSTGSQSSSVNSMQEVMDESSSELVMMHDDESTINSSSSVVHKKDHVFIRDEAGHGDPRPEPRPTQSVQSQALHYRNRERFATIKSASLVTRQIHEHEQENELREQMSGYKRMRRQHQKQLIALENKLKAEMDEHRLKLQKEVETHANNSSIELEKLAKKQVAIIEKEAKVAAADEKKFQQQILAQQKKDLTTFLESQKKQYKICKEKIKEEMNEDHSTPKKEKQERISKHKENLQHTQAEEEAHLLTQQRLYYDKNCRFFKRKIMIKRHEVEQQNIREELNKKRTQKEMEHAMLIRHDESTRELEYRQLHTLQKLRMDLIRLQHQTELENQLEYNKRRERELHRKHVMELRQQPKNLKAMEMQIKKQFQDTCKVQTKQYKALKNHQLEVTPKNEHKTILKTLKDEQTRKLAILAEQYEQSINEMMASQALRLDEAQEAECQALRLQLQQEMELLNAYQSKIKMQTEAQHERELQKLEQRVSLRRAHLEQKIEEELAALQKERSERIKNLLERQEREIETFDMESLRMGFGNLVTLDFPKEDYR

The source made the active and inactive calls. Rule as the data show it: actives have a measured Kd and inactives only a lower limit. A value given as a limit tells only on which side of the number the result lay.
Also: in the data inactive means no Kd found up to 30 µM.

Sequence of Epithelial discoidin domain-containing receptor 1 (Q08345 whole entry, the tested form may be a part): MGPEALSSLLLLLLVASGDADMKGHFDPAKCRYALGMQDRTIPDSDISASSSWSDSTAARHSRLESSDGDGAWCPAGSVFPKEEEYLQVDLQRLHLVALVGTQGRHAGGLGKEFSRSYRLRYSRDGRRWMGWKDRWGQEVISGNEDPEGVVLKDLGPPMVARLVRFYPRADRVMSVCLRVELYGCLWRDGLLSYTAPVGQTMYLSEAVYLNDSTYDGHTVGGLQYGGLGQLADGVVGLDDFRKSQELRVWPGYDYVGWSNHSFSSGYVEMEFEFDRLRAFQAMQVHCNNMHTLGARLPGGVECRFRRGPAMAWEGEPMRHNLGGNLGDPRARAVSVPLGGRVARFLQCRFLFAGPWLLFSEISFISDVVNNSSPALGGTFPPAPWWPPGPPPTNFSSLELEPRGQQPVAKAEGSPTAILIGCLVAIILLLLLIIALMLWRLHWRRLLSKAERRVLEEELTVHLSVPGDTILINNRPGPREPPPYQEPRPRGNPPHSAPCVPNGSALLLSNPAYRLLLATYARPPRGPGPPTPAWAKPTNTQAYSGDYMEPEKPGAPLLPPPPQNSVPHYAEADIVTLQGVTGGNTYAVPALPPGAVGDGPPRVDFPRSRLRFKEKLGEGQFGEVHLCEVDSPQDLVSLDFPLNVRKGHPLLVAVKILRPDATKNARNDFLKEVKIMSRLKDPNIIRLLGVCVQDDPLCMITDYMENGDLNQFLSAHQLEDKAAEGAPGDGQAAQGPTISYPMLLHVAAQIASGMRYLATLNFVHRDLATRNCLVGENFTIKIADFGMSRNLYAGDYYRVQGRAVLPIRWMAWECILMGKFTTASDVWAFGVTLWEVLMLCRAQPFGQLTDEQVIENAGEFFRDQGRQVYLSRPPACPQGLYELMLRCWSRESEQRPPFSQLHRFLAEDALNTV

For `CCN(CCCOc1ccc2c(Nc3cc(CC(=O)Nc4cccc(F)c4)n[nH]3)ncnc2c1)CCOP(=O)(O)O` [BARASERTIB], the Kd (in assay [1]; at Ephrin type-B receptor 4; on Ephrin type-B receptor 6; in assay [2]) was > 30 µM (inactive) each time.

For `C=CCn1c(=O)c2cnc(Nc3ccc(N4CCN(C)CC4)cc3)nc2n1-c1cccc(C(C)(C)O)n1` [ADAVOSERTIB], the Kd is > 30 µM (inactive) in assay [1], > 30 µM (inactive) on Ephrin type-B receptor 4, 0.337 µM (active) at Ephrin type-B receptor 6 and > 30 µM (inactive) in assay [2].

`COc1cc2ncnc(Nc3ccc(F)c(Cl)c3)c2cc1NC(=O)/C=C/CN1CCCCC1` [DACOMITINIB ANHYDROUS]: the Kd (in assay [1]; at Ephrin type-B receptor 4; on Ephrin type-B receptor 6; in assay [2]) was > 30 µM (inactive) throughout.

Turning to `COCCN1CCN(Cc2ccc(-c3n[nH]c4c3C(=O)c3c(NC(=O)NN5CCOCC5)cccc3-4)cc2)CC1` [RGB-286638], the Kd (in assay [1]; at Ephrin type-B receptor 4; on Ephrin type-B receptor 6; in assay [2]) was > 30 µM (inactive) each time.

In the case of `O=C(NOC[C@H](O)CO)c1ccc(F)c(F)c1Nc1ccc(I)cc1F` [MIRDAMETINIB], the Kd (in assay [1]; on Ephrin type-B receptor 4; at Ephrin type-B receptor 6; in assay [2]) was > 30 µM (inactive) in each case.

As for `CNC(=O)c1cccc(-c2ccc3c(N4CCOC[C@@H]4C)nc(N4CCOC[C@@H]4C)nc3n2)c1` [VISTUSERTIB], the Kd (at Ephrin type-B receptor 4; on Ephrin type-B receptor 6; in assay [2]) was > 30 µM (inactive) in each case.

As to `COc1cc2nccc(Oc3ccc(NC(=O)C4(C(=O)Nc5ccc(F)cc5)CC4)cc3)c2cc1OC` [CABOZANTINIB], the Kd was 0.209 µM (active) in assay [1], > 30 µM (inactive) on Ephrin type-B receptor 4, > 30 µM (inactive) on Ephrin type-B receptor 6 and > 30 µM (inactive) in assay [2].

For the compound `Cc1cc(Nc2nc(N[C@@H](C)c3ncc(F)cn3)ncc2Cl)n[nH]1` [AZD-1480], the Kd (in assay [1]; at Ephrin type-B receptor 4; at Ephrin type-B receptor 6; in assay [2]) was > 30 µM (inactive) throughout.

For `O=C(Nc1ccc(OC(F)(F)F)cc1)c1sccc1NCc1ccnc2ccccc12` [OSI-930], the Kd (in assay [1]; at Ephrin type-B receptor 4; at Ephrin type-B receptor 6; in assay [2]) was > 30 µM (inactive) in each case.

As to `C=CCN(/C=C1/C(=O)O[C@H](COC)[C@@]2(C)C1=C(O)C(=O)C1=C2[C@H](OC(C)=O)C[C@]2(C)C(=O)CC[C@@H]12)CC=C` [SONOLISIB], the Kd (in assay [1]; on Ephrin type-B receptor 4; on Ephrin type-B receptor 6; in assay [2]) was > 30 µM (inactive) in each case.

`COc1cccc2cc(-c3nc([C@H]4CC[C@H](C(=O)O)CC4)n4ncnc(N)c34)[nH]c12` [OSI-027]: the Kd (in assay [1]; at Ephrin type-B receptor 4; on Ephrin type-B receptor 6; in assay [2]) was > 30 µM (inactive) throughout.

Regarding `O=c1[nH]c([C@@H]2CCCN2)nc2c1oc1ccc(Cl)cc12`, the Kd was > 30 µM (inactive) in assay [1], > 30 µM (inactive) on Ephrin type-B receptor 4, > 30 µM (inactive) at Ephrin type-B receptor 6 and 2.29 µM (active) in assay [2].

With `CN1CCN(c2nc(C3=C(c4c[nH]c5ccccc45)C(=O)NC3=O)c3ccccc3n2)CC1` [SOTRASTAURIN], the Kd (in assay [1]; at Ephrin type-B receptor 4; on Ephrin type-B receptor 6; in assay [2]) was > 30 µM (inactive) each time.

Consider `CCN1CCN(Cc2ccc(Nc3ncc(F)c(-c4cc(F)c5nc(C)n(C(C)C)c5c4)n3)nc2)CC1` [ABEMACICLIB], for which the Kd was > 30 µM (inactive) in assay [1], > 30 µM (inactive) on Ephrin type-B receptor 4, > 30 µM (inactive) at Ephrin type-B receptor 6 and 1.72 µM (active) in assay [2].

As to `COc1ccc(-c2ccc3ncc4c(c3c2)n(-c2ccc(N3CCNCC3)c(C(F)(F)F)c2)c(=O)n4C)cn1` [BGT-226 FREE BASE], the Kd (in assay [1]; at Ephrin type-B receptor 4; at Ephrin type-B receptor 6; in assay [2]) was > 30 µM (inactive) each time.

Regarding `CNC(=O)c1ccc(Nc2ncc(C(F)(F)F)c(NCc3nccnc3N(C)S(C)(=O)=O)n2)cc1` [DEFACTINIB], the Kd is > 30 µM (inactive) in assay [1], > 30 µM (inactive) on Ephrin type-B receptor 4, > 30 µM (inactive) at Ephrin type-B receptor 6 and 10.8 µM (active) in assay [2].

As for `Cc1c(Cn2c(C)nc3c(C(=O)O)cc(N4CCOCC4)cc32)cccc1C(F)(F)F` [GSK-2636771], the Kd (in assay [1]; at Ephrin type-B receptor 4; at Ephrin type-B receptor 6; in assay [2]) was > 30 µM (inactive) throughout.

Take `Cn1c(=O)c(F)c(Nc2ccc(I)cc2F)c2c(=O)n(C[C@@H](O)CO)cnc21` [TAK-733]: the Kd (in assay [1]; on Ephrin type-B receptor 4; in assay [2]) was > 30 µM (inactive) in each case.

In the case of `CC(C)CC(=O)Nc1[nH]nc2c1CN(C(=O)C1CCN(C)CC1)C2(C)C` [PHA-793887], the Kd (in assay [1]; at Ephrin type-B receptor 4; at Ephrin type-B receptor 6) was > 30 µM (inactive) throughout.

On to `N#CCNC(=O)c1ccc(-c2ccnc(Nc3ccc(N4CCOCC4)cc3)n2)cc1` [MOMELOTINIB], for which the Kd (in assay [1]; at Ephrin type-B receptor 4; at Ephrin type-B receptor 6) was > 30 µM (inactive) throughout.

By Kd is commonly meant the concentration at which binding is half-saturated.
